Results from patent US20160220637A1, “Pharmaceutical Compositions of Growth Hormone Secretagogue Receptor Ligands” (Ipsen Pharma S.A.S., priority 2010, published 2016).
Structures can show the parent of a compound that is named as a salt. Non-standard residues stand in square brackets, D forms with d. Residues, ends and D or L forms follow the SMILES beside them. dBip = N[C@H](Cc1ccc(-c2ccccc2)cc1)C(=O)O; dBta = N[C@H](Cc1csc2ccccc12)C(=O)O; Api = NC1(C(=O)O)CCNCC1; Inp = O=C(O)C1CCNCC1

Assays:
Solubility study = type: physicochemical
Description: The mixture was sonicated to facilitate dissolution.

[1] = biological target: human recombinant GHS receptor (Homo sapiens, UniProt Q92847); conditions: read-out: hGHS Ki; 0.05 nM (125I)ghrelin, 60 min, 4° C., CHO-K1 membranes
Chain of human recombinant GHS receptor (Q92847 whole entry): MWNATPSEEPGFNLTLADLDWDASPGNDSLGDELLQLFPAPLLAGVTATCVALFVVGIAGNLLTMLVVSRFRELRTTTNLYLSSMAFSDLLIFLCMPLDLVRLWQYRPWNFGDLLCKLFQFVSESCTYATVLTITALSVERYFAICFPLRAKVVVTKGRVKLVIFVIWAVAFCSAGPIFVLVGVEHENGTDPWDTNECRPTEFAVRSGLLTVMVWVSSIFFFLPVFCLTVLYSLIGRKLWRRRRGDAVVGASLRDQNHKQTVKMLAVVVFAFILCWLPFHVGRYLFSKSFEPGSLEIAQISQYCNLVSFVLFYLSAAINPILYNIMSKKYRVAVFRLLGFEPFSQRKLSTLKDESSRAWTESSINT
Description: Radioligand Binding Assays
Cellular membranes used for the in vitro receptor binding assay were obtained from transgenic CHO-K1 cells stably expressing the human recombinant GHS receptor. CHO-K1 cells stably expressing the hGHS receptor were homogenized in 20 ml of ice-cold 50 mM Tris-HCl with a Brinkman Polytron (Westbury, N.Y., USA) (setting 6, 15 sec). The homogenates were washed twice by centrifugation (39,000 g/10 min), and the final pellets were resuspended in 50 mM Tris-HCl, containing 2.5 mM MgCl2, and 0.1% BSA.

Row | Structure (SMILES) | Solubility, PBS, pH 7.4 (Solubility study; PBS, pH 7.4, HPLC of supernatant) [mg/mL] | Solubility, Water, pH 7.0 (Solubility study; HPLC of supernatant) [mg/mL] | Dissolution in PEG200/water (Solubility study; 50 mg in 125 μL PEG200 and 125 μL water, sonicated) | solubility (Solubility study; PBS, pH 7.4, PBS, pH 7.4, HPLC of supernatant) [µg/mL] | Ki [1] [nM]
1 | NC(=O)C1(NC(=O)[C@H](Cc2ccccc2)NC(=O)[C@@H](Cc2c[nH]c3ccccc23)NC(=O)[C@@H](Cc2csc3ccccc23)NC(=O)C2CCNCC2)CCNCC1 [Pamoate salt of Example 1 with Zn] (H-[Inp][dBta][dW]F[Api]-NH2) | 0.08 | 0.14 |  |  | 
2 | NC(=O)C1(NC(=O)[C@H](Cc2ccccc2)NC(=O)[C@@H](Cc2c[nH]c3ccccc23)NC(=O)[C@@H](Cc2csc3ccccc23)NC(=O)C2CCNCC2)CCNCC1 [Pamoate salt of Example 1, pamoate salt of H-Inp-D-Bal-D-Trp-Phe-Apc-NH2] (H-[Inp][dBta][dW]F[Api]-NH2) |  | 0.06 | A clear solution was obtained | 70 | 
3 | NC(=O)[C@H](Cc1ccccc1)NC(=O)[C@@H](Cc1c[nH]c2ccccc12)NC(=O)[C@@H](Cc1ccc(-c2ccccc2)cc1)NC(=O)C1CCNCC1 [Example 16, H-Inp-D-Bip-D-Trp-Phe-NH2] (H-[Inp][dBip][dW]F-NH2) |  |  |  |  | 20
